Measurements taken from patent publication US7335663B2, “Heteroaryl compounds which inhibit leukocyte adhesion mediated by α4 integrins” (Elan Pharmaceuticals, Inc., priority 2002, dated 2008).

What was measured:
α4β1 Integrin = molecular target: T1, α4β1 Integrin (Homo sapiens, UniProt P05556+P13612); assay: α4β1 Integrin Adhesion Assay: Jurkat cell adhesion to human plasma fibronectin; format: cell-based; conditions: Jurkat cells
T1 construct: endogenous in cells; host or cells: Jurkat cells
Experimental: 96 well plates (Costar 3590 EIA plates) were coated with human fibronectin (Gibco/BRL, cat #33016-023) at a concentration of 10 μg/mL overnight at 4° C. The plates were then blocked with a solution of bovine serum albumin (BSA; 0.3%) in saline. Jurkat™ cells (maintained in log phase growth) were labeled with Calcein AM according to the manufacturer's instructions, and suspended at a concentration of 2×10^6 cells/mL in Hepes/Saline/BSA. The cells were then exposed to test and control compounds for 30 minutes at room temperature before transfer to individual wells of the fibronectin coated plate. Adhesion was allowed to occur for 35 minutes at 37° C. The wells were then washed by gentle aspiration and pipetting with fresh saline. Fluorescence associated with the remaining adherent cells was quantified using a fluorescence plate reader at EX 485/EM 530.
Cell cultures were prepared by first splitting the stationary phase Jurkat™ cells at 1:10 on day one, and 1:2 on day two to perform assay on day 3. The cells split 1:10 on day one were split 1:4 on day 3 for a day 4 assay.
The assay plates were prepared by first making a working solution of Gibco/BRL Human Fibronectin (cat # 33016-023) in PBS++, at 10 μg/mL.
A Costar 3590 EIA plate was then coated with 50 μL/well for 2 hours at room temperature (thought it can also be left overnight at 4° C). Finally the plate was asperated and blocked with Hepes/Saline Buffer, 100 μL/well, for 1 hour at RT followed by washing three times with 150 μL of PBS++.
Compound dilutions were accomplished by preparing 1:3 serial dilutions of compounds as follows. For each plate (4 compounds/plate) 600 μL were added to 4 Bio-Rad Titertubes in a Titertube rack. Enough compound was added to each appropriate tube to give a 2× concentration using methods well known in the art. Using Falcon Flexiplates, 100 μL of Hepes/Saline buffer or human serum were added to rows B through G. A multi-channel pipetter set to 180 μL was used to with four tips spaced evenly the pipetter. Each set of four tubes was mixed 5 times and 180 μL, of 2× compound was transferred to the first column of each compound dilution in Row B, leaving Row A empty. 180 μL were added to the other wells in Row A. Serial dilutions were performed down the plate by transferring 50 μL to the next dilution and mixing 5 times, changing tips each time after mixing. Dilutions were stopped at Row F. Row G had no compound present.
A 20 μg/mL solution in Hepes/Saline buffer or human serum, of 21/6 antibody was the positive control and was set aside in a reagent trough to add to cell suspension plate.
The cell staining was accomplished by first harvesting the log-phase Jurkat™ cells by centrifugation in 50 mL tubes (1100 rpm for 5 minutes). The cells were resuspended in 50 mL PBS++, spun, and resuspend in 20 mL PBS++. The cells were stained by adding 20 μL of Calcein AM for 30 minutes R.T. The volume was brought to 50 mL with Hepes/Saline buffer and the cells were counted, spun, and resuspend to 2×10^6 cells/mL in Hepes/Saline buffer or human serum.
The compounds were incubated using the following procedure. In a new flexiplate, 65 μL of stained cells were added to Rows B through H. Then 65 μL of 2× compounds were added to the appropriate rows following the plate setup and mixed 3×. 65 μL of 2×-21/6 antibody were added to Row H and mixed 3×. Finally the plate was incubated at room temperature for 30 minutes.
Fibronectin adhesion was measured using a fluorescent plate reader at EX 485/EM 530 after the following work up procedure. After incubation, the cells were mixed 3× and 100 μL were transferred to the Fibronectin coated plates and incubated at 37° C. for about 35 minutes. Each plate was washed, row by row, by gently pipetting 100 μL of R.T. PBS++ down the sides of the wells and turning the plate 90 degrees to aspirate. This procedure was repeated for a total of 3 washes. Each well was filled with 100 μL after washing by pipetting down the side of the well. […]

[1] = Cassette dosing and serum analysis for determination of oral bioavailability; format: in vivo, Sprague Dawley (SD) rats; conditions: rats, oral cassette of 6 compounds, total dose 10 mg/kg, plasma samples at 4, 8 and 12 h
Experimental: The oral bioavailability was screened by dosing rats with a cassette, i.e. mixture of 6 compounds per dosing solution. The cassette included 5 test articles and a standard compound, for a total dose of 10 mg/kg. Each compound/test article was converted to the sodium salt with equimolar 1 N NaOH and dissolved in water at 2 mg/mL. The cassette was prepared by mixing equal volumes of each of the six solutions. The cassette dosing solution was mixed well and then the pH was adjusted to 7.5-9. The dosing solution was prepared the day before the study and stirred overnight at room temperature.
Male Sprague Dawley (SD) rats from Charles River Laboratories, 6-8 weeks old were used in this screen. Rats were quarantined for at least one day and had continuous access to food and water. On the night before the administration of the cassette, the rats were fasted for approximately 16 h.
Four SD rats were assigned in each cassette. A single dose of the dosing solution was administered orally to each rat. The dosing volume (5 mL/kg) and time were recorded and rats were fed 2 h after dosing.
Blood samples were collected via cardiac puncture at the following time points: 4 h, 8 h and 12 h. Immediately prior to blood collection, rats were anesthetized with CO2 gas within 10-20 seconds. After the 12-hour samples were collected, the rats were euthanized via CO2 asphyxiation followed by cervical dislocation.
Blood samples were kept in heparinized microtainer tubes under sub-ambient temperature (4° C.) before they were processed. Blood samples were centrifuged (10000 rpm for 5 minutes) and plasma samples were removed and stored in a −20° C. freezer until analyzed for drug levels. Drug levels in the plasma were analyzed using the following protocol for direct plasma precipitation.
The in vivo plasma samples were prepared in a 1.5 mL 96-well plate, by adding, in order, 100 μL of the test plasma, 150 μL of methanol, followed by vortexing for 10-20 seconds. 150 μL of 0.05 ng/μL of an Internal Standard in acetonitrile were added and vortexed for 30 seconds.
The standard curve samples were prepared in a 1.5 mL 96-well plate, by adding, in order, 100 μL of control mouse plasma, followed by 150 μL of methanol and vortexing for 10-20 seconds. 150 μL of 0.05 ng/μL of an Internal Standard in acetonitrile were added and vortexed for 30 seconds. The samples were spiked with 0-200 ng (10 concentrations) of the compound of interest in 50% methanol to obtain a standard curve range of 0.5 ng/mL-2,000 ng/mL. Again, the sample was vortexed for 30 seconds.
The samples were then spun for 20-30 minutes at 3000 rpm in an Eppendorf microfuge before 80-90% of supernatant was transferred into a clean 96-well plate. The organic solvent was then evaporated until the samples were dry (under N2 at 40° C./30-60 min (ZymarkTurbovap)).
The residue was then dissolved in 200-600 L mobile phase (50% CH3OH/0.1% TFA). LC/MS/MS was then run using a PE-Sciex API-3000 triple quadurpole mass spectrometer (SN0749707), Perkin-Elmer, Series200auto-sampler, and shimadzu 10A pump. Acquisition was done with PE-Sciex Analyst (v1.1) and data analysis and quantification were accomplished using PE-Sciex Analyst (v1.1). A 5-50 μL sample volume was injected onto a reverse phase ThermoHypersil DASH-18 column (Keystone 2.0×20 mm, 5 μm, PN: 8823025-701) using a mobile phase of 25% CH3OH, 0.1% TFA-100% CH3OH, 0.1% TFA. The run time was about 8 minutes at a flow rate of about 300 μL/minutes.
The Area Under the Curve (AUC) was calculated using the linear trapezoidal rule from t=0 to the last sampling time tx (see Handbook of Basic Pharmacokinetics, Wolfgang A. Ritschel and Gregory L. Kearns, 5th ed, 1999). AUC^0−+tx=S((Cn+Cn+1)/2))·(tn+1−tn)[(μg/mL)h]
In the case of the cassette dosing paradigm, samples at 4, 8 and 12 h post extravascular dosing, the AUC was calculated from t=0 to t=12 h.

T1 sequence (P13612 34-1032): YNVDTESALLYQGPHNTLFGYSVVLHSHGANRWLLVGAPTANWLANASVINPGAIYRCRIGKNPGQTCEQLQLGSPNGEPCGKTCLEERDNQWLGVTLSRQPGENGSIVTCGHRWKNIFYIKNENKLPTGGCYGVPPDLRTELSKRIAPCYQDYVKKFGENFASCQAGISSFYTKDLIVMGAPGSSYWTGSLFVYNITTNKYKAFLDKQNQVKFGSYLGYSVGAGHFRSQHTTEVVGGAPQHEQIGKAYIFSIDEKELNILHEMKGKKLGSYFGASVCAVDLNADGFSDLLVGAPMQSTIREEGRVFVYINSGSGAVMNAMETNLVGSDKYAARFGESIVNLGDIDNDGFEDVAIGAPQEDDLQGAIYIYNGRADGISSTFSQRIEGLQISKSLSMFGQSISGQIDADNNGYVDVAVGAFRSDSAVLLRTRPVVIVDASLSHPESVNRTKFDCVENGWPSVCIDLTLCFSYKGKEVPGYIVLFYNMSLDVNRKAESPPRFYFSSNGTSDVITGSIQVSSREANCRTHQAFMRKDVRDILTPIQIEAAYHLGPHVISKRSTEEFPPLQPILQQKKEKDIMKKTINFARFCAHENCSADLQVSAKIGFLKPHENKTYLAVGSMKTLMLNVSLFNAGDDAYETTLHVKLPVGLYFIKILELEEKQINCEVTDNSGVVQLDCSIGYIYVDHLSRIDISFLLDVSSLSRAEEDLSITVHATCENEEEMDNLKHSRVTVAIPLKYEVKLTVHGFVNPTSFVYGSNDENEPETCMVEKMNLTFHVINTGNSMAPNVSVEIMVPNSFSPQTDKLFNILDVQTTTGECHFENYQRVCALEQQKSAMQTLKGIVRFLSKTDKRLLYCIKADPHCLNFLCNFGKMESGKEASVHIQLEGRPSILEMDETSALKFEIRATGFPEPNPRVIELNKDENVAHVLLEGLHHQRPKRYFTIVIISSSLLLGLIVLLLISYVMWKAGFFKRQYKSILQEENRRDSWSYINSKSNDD
T1 sequence (P05556 21-798): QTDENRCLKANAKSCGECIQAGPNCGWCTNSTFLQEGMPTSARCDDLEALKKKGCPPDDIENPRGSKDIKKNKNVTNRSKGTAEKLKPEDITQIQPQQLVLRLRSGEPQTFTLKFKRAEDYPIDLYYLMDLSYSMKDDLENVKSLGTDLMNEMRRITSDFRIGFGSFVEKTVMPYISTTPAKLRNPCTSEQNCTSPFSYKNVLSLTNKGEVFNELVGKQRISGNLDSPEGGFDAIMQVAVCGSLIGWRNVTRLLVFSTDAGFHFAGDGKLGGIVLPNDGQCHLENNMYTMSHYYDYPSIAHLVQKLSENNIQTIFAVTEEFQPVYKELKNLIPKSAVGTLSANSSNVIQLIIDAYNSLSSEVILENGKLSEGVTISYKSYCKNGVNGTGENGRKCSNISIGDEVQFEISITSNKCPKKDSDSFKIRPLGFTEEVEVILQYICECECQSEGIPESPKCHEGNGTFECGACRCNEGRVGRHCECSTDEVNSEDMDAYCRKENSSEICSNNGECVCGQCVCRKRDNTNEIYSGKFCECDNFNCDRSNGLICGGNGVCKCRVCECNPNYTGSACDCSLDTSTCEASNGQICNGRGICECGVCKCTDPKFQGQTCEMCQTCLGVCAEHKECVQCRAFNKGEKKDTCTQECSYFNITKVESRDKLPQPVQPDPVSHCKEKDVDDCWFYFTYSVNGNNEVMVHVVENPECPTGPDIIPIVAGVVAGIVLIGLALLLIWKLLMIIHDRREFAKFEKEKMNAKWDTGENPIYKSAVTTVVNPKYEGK

In the case of “2-{2-diethylamino-5-[(chlorobenzenesulfonyl)ethylamino]pyrimidin-4-ylamino}-3-(4-dimethylcarbamoyloxyphenyl)propionic acid [Example 13]”, the “IC50, Cell Adhesion to Human Plasma Fibronectin (With human serum)” value (α4β1 Integrin; with human serum) is reported as 0.075 µg/mL, the “IC50, Cell Adhesion to Human Plasma Fibronectin (Without the human serum)” value (α4β1 Integrin; without human serum) is reported as 0.004 µg/mL and the “AUC (average AUC 0-12 h)” value [1] is reported as 1.5806 (μg/mL)h.
